Consider eight molecules from PMC7763114, “Synthesis and pharmacological effects of novel benzenesulfonamides carrying benzamide moiety as carbonic anhydrase and acetylcholinesterase inhibitors” (Turkish Journal of Chemistry, 2020).

Several values for one entry are separate records, joined by “and”; a condition that tells them apart may be missing. Equal values may be shown once.

What all share (assay type): biochemical
The target in one test is hCA I (Homo sapiens, UniProt P00915). The test can be described thus: biochemical. Particulars: for Ki: Lineweaver–Burk plots, three concentrations. The protocol: (§1) CA isoenzymes (CA I and CA II) were purified using a Sepharose-4B-L tyrosine-sulphanilamide affinity chromatography. Activities of CA isoenzymes were determined according to method by Verpoorte et al.. […] The experimental procedure was given in detail in our previous papers. SSpectrophotometry-based Ellman’s method was used to test the compounds’ AChE inhibitory effects. Acetylthiocholine iodide (AChI) was used as a substrate of the reaction. 5,5-dithiobis(2-nitro-benzoic acid) (DTNB) was used for the determination of the AChE activities. An activity (%)-[Compound] graph was drawn to calculate the inhibition effects of the compounds on CAs and AChE. The IC50 values were obtained from activity (%) versus compounds plots. Three different concentrations were used to calculate Ki values. The Lineweaver–Burk plots were drawn, and calculations were realized as described.

For the next test, the target named is hCA II (Homo sapiens, UniProt P00918). Kind of test: biochemical. Particulars: for Ki: Lineweaver–Burk plots, three concentrations. As for the experimental part:
as §1

Another test addresses AChE (Electrophorus electricus, UniProt O42275). The test can be described thus: AChE inhibition (Ellman's method). The settings on record: in terms of Ki value. As for the experimental part:
as §1
Background: In Ellman's method for cholinesterases, released thiocholine reacts with DTNB.

Chain of hCA I (P00915 whole entry): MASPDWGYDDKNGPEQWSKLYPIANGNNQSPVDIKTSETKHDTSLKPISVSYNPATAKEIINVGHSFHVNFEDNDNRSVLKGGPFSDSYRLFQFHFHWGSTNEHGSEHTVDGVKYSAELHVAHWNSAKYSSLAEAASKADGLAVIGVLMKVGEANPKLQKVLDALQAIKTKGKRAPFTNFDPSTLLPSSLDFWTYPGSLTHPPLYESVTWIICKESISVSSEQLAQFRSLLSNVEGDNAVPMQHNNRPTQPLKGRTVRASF
Chain of AChE (O42275 24-633): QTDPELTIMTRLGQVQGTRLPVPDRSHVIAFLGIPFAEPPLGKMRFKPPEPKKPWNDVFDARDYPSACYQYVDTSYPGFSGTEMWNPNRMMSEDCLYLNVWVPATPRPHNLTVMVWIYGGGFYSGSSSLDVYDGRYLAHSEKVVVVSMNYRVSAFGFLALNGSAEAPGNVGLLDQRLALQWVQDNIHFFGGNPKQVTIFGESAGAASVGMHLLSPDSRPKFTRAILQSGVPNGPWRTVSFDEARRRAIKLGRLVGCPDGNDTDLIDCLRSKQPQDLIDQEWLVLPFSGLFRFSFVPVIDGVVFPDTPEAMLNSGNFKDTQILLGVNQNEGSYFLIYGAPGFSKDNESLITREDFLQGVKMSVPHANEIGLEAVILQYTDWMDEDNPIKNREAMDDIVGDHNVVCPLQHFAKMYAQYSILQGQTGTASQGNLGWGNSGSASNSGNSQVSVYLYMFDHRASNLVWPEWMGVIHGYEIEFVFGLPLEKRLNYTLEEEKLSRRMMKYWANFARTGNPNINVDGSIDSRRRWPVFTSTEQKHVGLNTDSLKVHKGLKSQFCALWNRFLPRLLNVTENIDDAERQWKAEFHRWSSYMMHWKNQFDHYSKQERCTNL

For the molecule `COc1ccc(/C=C(\NC(=O)c2ccccc2)C(=O)Nc2ccc(S(=O)(=O)NC(C)=O)cc2)cc1` [3a], on hCA I, the 50% inhibitory concentration (IC50) (commonly the midpoint of a concentration-inhibition curve) was 27.7 nM and the affinity corresponds to a Ki of 17.6 ± 4.72 nM. The “times more potent than AZA toward hCA I” value at hCA I (based on Ki values) was 1.7 ×. Moreover, on hCA II, the 50% inhibitory concentration (IC50) worked out at 20.4 nM and affinity was put at a Ki of 18.7 ± 1.59 nM. Further, on hCA II (based on Ki values), the “times more potent than AZA toward hCA II” value is on record as 1.2 ×.

In the case of `COc1ccc(/C=C(\NC(=O)c2ccccc2)C(=O)Nc2ccc(S(=O)(=O)NC(=N)N)cc2)cc1` [3b], at hCA I, the IC50 stood at 19.8 nM and affinity was put at a Ki of 29.7 ± 3.18 nM. For the same molecule, at hCA II, the IC50 came to 24.8 nM and the Ki (commonly a measure of affinity in units of concentration, obtained from inhibition or displacement) stood at 12.6 ± 2.54 nM. At hCA II (based on Ki values), the “times more potent than AZA toward hCA II” value was 1.8 ×.

On hCA I, `COc1ccc(/C=C(\NC(=O)c2ccccc2)C(=O)Nc2ccc(S(N)(=O)=O)cc2)cc1` [3c] displayed a half-maximal inhibitory concentration (IC50) of 20.4 nM and an inhibition constant Ki of 6.33 ± 0.51 nM. For the same molecule, the “times more potent than AZA toward hCA I” value at hCA I (based on Ki values) worked out at 4.8 ×. In addition, on hCA II, it took 30.1 nM to reach half-maximal inhibition (IC50) and the Ki amounted to 10.7 ± 0.98 nM. In addition, on hCA II (based on Ki values), the “times more potent than AZA toward hCA II” value was 2.1 × and 2 ×; the “times more potent than compound 2 on hCA II” value was 5.8 ×.

As for `COc1ccc(/C=C(\NC(=O)c2ccccc2)C(=O)Nc2ccc(S(=O)(=O)Nc3nccs3)cc2)cc1` [3d], at hCA I, half-maximal inhibition (IC50) required 22.4 nM and the Ki worked out at 9.16 ± 0.46 nM. In addition, the “times more potent than AZA toward hCA I” value on hCA I (based on Ki values) was 3.3 ×. Also, at hCA II, the IC50 came to 21 nM and the Ki turned out to be 16.9 ± 3.76 nM. Besides, the “times more potent than AZA toward hCA II” value at hCA II (based on Ki values) was found to be 1.3 ×.

With `COc1ccc(/C=C(\NC(=O)c2ccccc2)C(=O)Nc2ccc(S(=O)(=O)Nc3ncccn3)cc2)cc1` [3e], on hCA I, the midpoint of inhibition, the IC50, lay at 25.7 nM and the Ki came out at 8.02 ± 0.88 nM. Further, on hCA I (based on Ki values), the “times more potent than AZA toward hCA I” value was 3.8 ×. Moreover, on hCA II, the IC50 stood at 25.7 nM and the affinity, expressed as Ki, was 37.2 ± 7.55 nM.

On hCA I, `COc1ccc(/C=C(\NC(=O)c2ccccc2)C(=O)Nc2ccc(S(=O)(=O)Nc3nccc(C)n3)cc2)cc1` [3f] yielded an IC50 of 28.9 nM and a Ki of 11.3 ± 1.7 nM. For the same molecule, the “times more potent than AZA toward hCA I” value on hCA I (based on Ki values) is reported as 2.7 ×. In addition, at hCA II, the IC50 is 24.8 nM and the Ki was found to be 21.4 ± 3.47 nM. On AChE, the “times more potent than 3e on AChE” value was determined as 3.8 × and the “times more potent than 3g on AChE” value came to 1.5 ×.

Consider `COc1ccc(/C=C(\NC(=O)c2ccccc2)C(=O)Nc2ccc(S(=O)(=O)Nc3nc(C)cc(C)n3)cc2)cc1` [3g], for which, at hCA I, half-maximal inhibition (IC50) was put at 21 nM and the affinity corresponds to a Ki of 4.07 ± 0.38 nM. On hCA I (based on Ki values), the “times more potent than 3e on hCA I” value is 2 ×, the “times more potent than AZA toward hCA I” value was 7.5 × and the “times more potent than compound 2 on hCA I” value amounted to 12.4 ×. At hCA II, the IC50 came to 26.7 nM and the inhibitory constant (Ki) was 14.9 ± 3.1 nM. The “times more potent than AZA toward hCA II” value on hCA II (based on Ki values) came out at 1.5 ×.

Consider `COc1ccc(C=C2N=C(c3ccccc3)OC2=O)cc1` [compound 2, 4-(4-methoxybenzylidene)-2-phenyloxazol-5(4H)-one], for which, at hCA I, inhibition was half-maximal at 40.8 nM (IC50) and the Ki was 50.3 ± 1.59 nM. Further, on hCA II, 46.2 nM corresponded to half-maximal inhibition (IC50) and the Ki was found to be 62.5 ± 11.5 nM.
